{
  "source": "paper PMC9486805",
  "about": "“Identification of a Phage Display-Derived Peptide Interacting with the N-Terminal Region of Factor VII Activating Protease (FSAP) Enables Characterization of Zymogen Activation” (ACS Chemical Biology, 2022)",
  "key": {"plasma proteins": {"tested_on": "plasma proteins", "test": "Binding of biotinylated NNKC9/41 to immobilized plasma proteins", "settings": "Fig 2B, as summarised", "method": "(§1) Figure 2 NNKC9/41 interacts with the NTR of pro-FSAP: (A) To determine peptide binding to pro-FSAP, wells were coated with 2 μg/mL pro-FSAP and biotinylated NNKC9/41 and NNK11/189 and their respective scrambled controls were added in different concentration (0–5 μM). Peroxidase-labeled streptavidin was used to detect peptide binding. (B) Same procedure as in (A) except that different proteins were immobilized and biotinylated NNKC9/41 (0–30 μM) was added and its binding was measured. (C) Schematic structure of pro-FSAP with the heavy chain consisting of an NTR, three EGF domains, and a kringle domain, followed by the light chain harboring the serine protease domain (SPD). The binding domains of antibodies used in this study are indicated. (D) Recombinant complete heavy chain (heavy) and truncated heavy chain variants ΔNTR, ΔEGF1, ΔEGF2, ΔEGF3, and ΔKringle were expressed in bacteria and analyzed by sodium dodecyl sulfate poly(acrylamide) gel electrophoresis (SDS-PAGE) followed by Coomassie staining. […] Biotinylated NNKC9/41 or the scrambled control peptide was added at 1 μM and peptide binding was measured with peroxidase-linked streptavidin. […]\n(§2) Wells were coated with anti-FSAP polyclonal antibodies (5 μg/mL). […] Subsequently, the plates were washed, and bound peptides were detected with peroxidase-coupled streptavidin. […]"}, "FSAP heavy chain": {"tested_on": "FSAP heavy chain", "test": "Binding of biotinylated peptides to captured recombinant FSAP heavy chain", "parameters": "species or system human", "settings": "peptide 1 μM; triplicate wells (Fig 2E)", "method": "as §1, §2"}, "ΔNTR mutant": {"tested_on": "ΔNTR mutant", "test": "Binding of biotinylated peptides to captured ΔNTR mutant", "parameters": "species or system human", "settings": "peptide 1 μM; triplicate wells (Fig 2E)", "method": "as §1, §2"}, "plasminogen": {"tested_on": "plasminogen", "test": "Specificity towards pro-enzymes: plasminogen", "format": "biochemical", "settings": "plasminogen 50 nM; peptide 0-50 μM; CS41; duplicates, 3 experiments (Fig S7)", "method": "Fig S7. […]\n(§3) Bend, IN, USA) except plasminogen and FSAP, which were isolated in house; and pro-uPA was from Grünenthal (Stolberg, Germany). All chromogenic substrates were from Hyphen Biomed (Neuville Sur Oise, France). Experiments were carried out in TBS with Tween-20 (0.1 % wt/ vol) BSA (0.3% wt/vol) and CaCl2 (2 mM). Absorbance at 405 nm was measured over time and the enzyme activity is depicted was measured in duplicates (mean + or -range) and similar results were obtained in 3"}, "factor XII": {"tested_on": "factor XII", "test": "Specificity towards pro-enzymes: factor XII", "format": "biochemical", "settings": "Factor XII 100 nM; peptide 0-50 μM; CS31 (Fig S7)", "method": "Fig S7. Specificity of NNKC9/41 towards other pro-enzymes: Zymogens and their respective active enzymes were incubated with NNKC9/41 or Ser-Ser linear peptide (0-50 μM) and the enzyme activity was monitored using respective chromogenic substrates. Activity of Factor XII(100 nM) and Factor XIIa (20 nM) was measured with the substrate CS31 (1000 µM). Pro-thrombin (100 nM) and thrombin (20 nM) […]\nas §3"}, "thrombin": {"tested_on": "thrombin", "test": "Specificity: thrombin", "format": "biochemical", "settings": "thrombin 20 nM; peptide 0-50 μM; CS01 (Fig S7)", "method": "Fig S7. […]\nPro-thrombin (100 nM) and thrombin (20 nM) […]\nas §3"}, "factor X": {"tested_on": "factor X", "test": "Specificity towards pro-enzymes: factor X", "format": "biochemical", "settings": "Factor X 50 nM; peptide 0-50 μM; S-2765 (Fig S7)", "method": "Fig S7. […]\nas §3"}, "pro-FSAP in WT/WT plasma": {"tested_on": "pro-FSAP in WT/WT plasma", "test": "Substrate turnover in WT/WT plasma", "format": "biochemical, human", "settings": "WT/WT citrate plasma 1:12; 25 μM (Fig 6A)", "method": "(§4) Figure 6 Pro-FSAP activation and clotting in plasma by NNKC9/41: (A) citrate plasma (1:12 dilution) from donors with WT/WT, WT/MI, and MI/MI genotypes and WT-FSAP-deficient plasma (FSAP-DP) were compared. Substrate turnover was monitored after addition of NNKC9/41 or the Ser–Ser linear peptide (25 μM each). Results are shown as mean + range of duplicate wells. (B) Pooled prothrombin-deficient citrated plasma (1:5 dilution) was recalcified with 10 mM CaCl2 and incubated with NNKC9/41 or scrambled control peptide (0–25 μM each) for 60 min at 37 °C in the presence or absence of the FSAP-inhibitory MA-FSAP-38C7 (5 μg/mL). Initiation of clotting was achieved by adding the tissue factor/phospholipid and prothrombin complex concentrate. Clotting time was measured as diluted prothrombin time (dPT) in seconds. Data are the mean of three independent experiments. The relative dPT in % of the untreated control is presented as mean ± standard error (SE) (*p <0.05, two-way analysis of variance (ANOVA) and Bonferroni post-test).\n(§5) Human citrate plasma (0.38% w/v) or hirudin plasma (25 μg/mL Lepirudin) was obtained from five healthy donors. […] Hydrolysis of the fluorogenic substrates was measured using a Synergy HI plate reader with excitation at 320 nm and emission at 460 nm at 37 °C for 60 min. The maximal velocity was calculated from the linear part of the progress curve. […]"}, "pro-FSAP in MI/MI plasma": {"tested_on": "pro-FSAP in MI/MI plasma", "test": "Substrate turnover in MI/MI plasma", "format": "biochemical, human", "settings": "MI/MI citrate plasma 1:12; 25 μM (Fig 6A)", "method": "as §4, §5"}, "pro-FSAP in human plasma": {"target": "T1, pro-FSAP in human plasma (Homo sapiens, UniProt Q14520)", "T1 construct": "from tissue; host or cells: human hirudin or citrate plasma from healthy donors, diluted 1:12", "T1 sequence (Q14520 24-560)": "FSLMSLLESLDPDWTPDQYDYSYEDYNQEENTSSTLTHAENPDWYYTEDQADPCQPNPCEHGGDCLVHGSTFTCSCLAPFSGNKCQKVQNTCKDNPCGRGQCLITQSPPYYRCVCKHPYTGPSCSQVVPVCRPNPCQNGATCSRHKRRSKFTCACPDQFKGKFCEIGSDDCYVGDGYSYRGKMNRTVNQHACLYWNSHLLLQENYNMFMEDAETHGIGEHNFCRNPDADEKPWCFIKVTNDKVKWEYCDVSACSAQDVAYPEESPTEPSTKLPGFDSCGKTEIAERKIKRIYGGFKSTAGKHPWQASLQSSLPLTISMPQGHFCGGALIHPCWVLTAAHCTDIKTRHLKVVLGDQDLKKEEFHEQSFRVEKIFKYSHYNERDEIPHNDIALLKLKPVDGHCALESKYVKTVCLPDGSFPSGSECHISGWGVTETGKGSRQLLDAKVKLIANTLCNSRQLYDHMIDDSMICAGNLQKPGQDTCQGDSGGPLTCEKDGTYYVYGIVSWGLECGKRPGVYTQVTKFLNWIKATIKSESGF", "test": "Activation of endogenous pro-FSAP in plasma, fluorogenic substrate turnover", "format": "biochemical"}},
  "data": [
    {"sequence": "CRGAMWMYKRC [NNKC9/41]", "values": [
      {"measurement": "binding to other plasma proteins", "setting": "plasma proteins", "value": "did not bind to any other plasma proteins tested, except FSAP"},
      {"measurement": "peptide binding to heavy chain", "setting": "FSAP heavy chain", "value": "high binding"},
      {"measurement": "peptide binding to ΔNTR mutant", "setting": "ΔNTR mutant", "value": "very low binding"},
      {"measurement": "effect on activity", "setting": "plasminogen", "value": "did not influence the activity"},
      {"measurement": "effect on activity", "setting": "factor XII", "value": "did not influence the activity"},
      {"measurement": "effect on activity", "setting": "thrombin", "value": "did not influence the activity"},
      {"measurement": "effect on activity", "setting": "factor X", "value": "did not influence the activity"},
      {"measurement": "substrate turnover", "setting": "pro-FSAP in WT/WT plasma", "value": "high substrate turnover"},
      {"measurement": "substrate turnover", "setting": "pro-FSAP in MI/MI plasma", "value": "none"},
      {"measurement": "effect in citrate plasma 1:2", "setting": "pro-FSAP in human plasma; citrate plasma 1:2, 10 μM, 3 donors (Fig S5)", "value": "completely abolished"},
      {"measurement": "pro-FSAP activation in 1:2 diluted plasma vs higher dilution", "setting": "pro-FSAP in human plasma; hirudin and citrate plasma 1:2 (Fig S5)", "value": "lower pro-FSAP activation"}
    ]}
  ]
}
